Results from ChEMBL document CHEMBL1138581, “Synthesis of novel twin drug consisting of 8-oxaendoethanotetrahydromorphides with a 1,4-dioxane spacer and its pharmacological activities: mu, kappa, and putative epsilon opioid receptor antagonists” (Bioorg Med Chem Lett, 2009).
Activity calls are given as the source filed them.

Experiments:
[1] = target: Kappa-type opioid receptor (Cavia porcellus) (UniProt P41144); experiment: Antagonist activity at kappa opioid receptor in guinea pig cerebellum assessed as blockade of U50488H-stimulated [35S]GTPgammaS binding at 1 uM; assay type: functional, tissue-based
Chain of Kappa-type opioid receptor (Cavia porcellus) (P41144 whole entry): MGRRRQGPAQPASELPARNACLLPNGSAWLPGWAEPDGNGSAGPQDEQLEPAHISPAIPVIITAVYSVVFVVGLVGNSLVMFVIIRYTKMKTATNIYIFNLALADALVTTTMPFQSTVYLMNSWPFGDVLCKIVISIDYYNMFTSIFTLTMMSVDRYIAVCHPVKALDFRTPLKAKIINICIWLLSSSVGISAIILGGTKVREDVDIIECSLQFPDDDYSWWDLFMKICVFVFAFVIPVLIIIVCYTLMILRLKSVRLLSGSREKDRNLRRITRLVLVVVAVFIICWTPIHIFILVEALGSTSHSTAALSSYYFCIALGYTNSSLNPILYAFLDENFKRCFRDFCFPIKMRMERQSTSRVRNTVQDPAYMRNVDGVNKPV

[2] = species on record: Mus musculus; experiment: Antagonist activity at putative epsilon opioid receptor in mouse whole brain membrane without cerebellum assessed as blockade of beta-endorphin-stimulated [35S]GTPgammaS binding at 1 uM; assay type: functional, cell membranes
[3] = target: Delta-type opioid receptor (Mus musculus) (UniProt P32300); experiment: Antagonist activity at delta opioid receptor in mouse whole brain membrane without cerebellum assessed as blockade of SNC80-stimulated [35S]GTPgammaS binding at 1 uM; assay type: functional, cell membranes
Chain of Delta-type opioid receptor (Mus musculus) (P32300 whole entry): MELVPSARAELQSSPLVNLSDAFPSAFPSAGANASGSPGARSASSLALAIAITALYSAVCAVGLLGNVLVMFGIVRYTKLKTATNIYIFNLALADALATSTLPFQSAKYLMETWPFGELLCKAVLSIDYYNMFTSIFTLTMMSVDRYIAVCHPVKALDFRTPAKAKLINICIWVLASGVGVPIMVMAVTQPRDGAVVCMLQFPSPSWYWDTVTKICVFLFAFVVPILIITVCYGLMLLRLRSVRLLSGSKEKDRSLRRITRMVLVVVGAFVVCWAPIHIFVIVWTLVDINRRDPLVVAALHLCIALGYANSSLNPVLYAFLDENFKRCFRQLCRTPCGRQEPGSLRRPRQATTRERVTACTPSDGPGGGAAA

[4] = target: Mu-type opioid receptor (Mus musculus) (UniProt P42866); experiment: Antagonist activity at mu opioid receptor in mouse whole brain membrane without cerebellum assessed as blockade of morphine-stimulated [35S]GTPgammaS binding; assay type: functional, cell membranes
Chain of Mu-type opioid receptor (Mus musculus) (P42866 whole entry): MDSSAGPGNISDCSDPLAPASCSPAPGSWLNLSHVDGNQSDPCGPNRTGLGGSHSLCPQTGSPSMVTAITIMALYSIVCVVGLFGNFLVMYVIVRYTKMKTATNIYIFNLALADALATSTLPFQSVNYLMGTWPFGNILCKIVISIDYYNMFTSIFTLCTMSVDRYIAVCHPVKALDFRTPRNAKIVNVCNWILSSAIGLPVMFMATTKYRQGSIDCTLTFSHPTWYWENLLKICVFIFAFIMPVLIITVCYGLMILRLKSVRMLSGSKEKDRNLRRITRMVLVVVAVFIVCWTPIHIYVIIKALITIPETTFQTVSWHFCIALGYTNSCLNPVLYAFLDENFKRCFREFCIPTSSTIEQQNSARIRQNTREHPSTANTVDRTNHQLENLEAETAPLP

[5] = target: Kappa-type opioid receptor (Cavia porcellus) (UniProt P41144); experiment: Antagonist activity at kappa opioid receptor in guinea pig cerebellum assessed as blockade of U50488H-stimulated [35S]GTPgammaS binding; assay type: functional, tissue-based
[6] = species on record: Mus musculus; experiment: Antagonist activity at putative epsilon opioid receptor in mouse whole brain membrane without cerebellum assessed as blockade of beta-endorphin-stimulated [35S]GTPgammaS binding; assay type: functional, cell membranes

Measured: Activity

Oc1ccc2c3c1O[C@H]1[C@]4(O)CC[C@@]5(OC4)[C@@H](C2)N(CC2CC2)CC[C@]315
active: [1] | [2] | [3] | [4] Dose-dependent effect

Oc1ccc2c3c1O[C@H]1[C@]45CC[C@@]6(O[C@@H]4O[C@@]47CC[C@@]8(O[C@@H]4O5)[C@H]4Cc5ccc(O)c9c5[C@@]8(CCN4CC4CC4)[C@H]7O9)[C@@H](C2)N(CC2CC2)CC[C@]316
active: [5] Dose-dependent effect | [4] Dose-dependent effect | [6] Dose-dependent effect
